Each compound was assayed against Mcl-1 protein (UniProtKB primary accession number: Q07820) (Homo sapiens, UniProt Q07820) (assay: Inhibition of Mcl-1 by fluorescence polarisation, Method 1). Details: fluorescence polarisation test; Method 1, or Method 2 where the value is underlined (underlining not visible); read-out: IC50 (M) Mcl-1 FP.
Type: binding
Summary of the method: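 Binding was measured as fluorescence polarisation of a fluorescein-labelled ligand (1 nM) displaced from Mcl-1 (5 nM), both final. Compounds ran as 11-point series with final DMSO at 5%.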

Sequence of Mcl-1 protein (Q07820 whole entry): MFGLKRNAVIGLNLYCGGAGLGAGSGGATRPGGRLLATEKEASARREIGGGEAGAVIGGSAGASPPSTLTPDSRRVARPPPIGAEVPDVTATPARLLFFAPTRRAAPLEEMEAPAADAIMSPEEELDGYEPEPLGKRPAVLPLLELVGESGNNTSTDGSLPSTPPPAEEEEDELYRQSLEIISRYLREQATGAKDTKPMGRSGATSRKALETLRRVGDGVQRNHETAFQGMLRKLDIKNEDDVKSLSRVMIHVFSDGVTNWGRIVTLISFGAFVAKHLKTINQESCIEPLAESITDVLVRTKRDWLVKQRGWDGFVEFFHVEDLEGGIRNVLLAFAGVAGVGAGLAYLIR

| SMILES | IC50 [M] |
| --- | --- |
| CCOC(=O)C(Cc1ccccc1OCc1ccnc(-c2ccccc2O)n1)Oc1ncnc2sc(-c3ccc(F)cc3)c(-c3ccc(OCCN4CCN(C)CC4)c(Cl)c3C)c12 [Example 793, ethyl (2R)-2-{[(5Sa)-5-{3-chloro-2-methyl-4-[2-(4-methylpiperazin-1-yl)ethoxy]phenyl}-6-(4-fluorophenyl)thieno[2,3-d]pyrimidin-4-yl]oxy}-3-(2-{[2-(2-hydroxyphenyl)pyrimidin-4-yl]methoxy}phenyl)propanoate] | 5.37e-06 |
| CCOC(=O)C(Cc1ccccc1OCc1ccnc(-c2ccccc2O)n1)Oc1ncnc2sc(-c3ccc(F)cc3)c(-c3ccc(OCCN4CCNCC4)c(Cl)c3C)c12 [Example 798, ethyl (2R)-2-{[(5Sa)-5-{3-chloro-2-methyl-4-[2-(piperazin-1-yl)ethoxy]phenyl}-6-(4-fluorophenyl)thieno[2,3-d]pyrimidin-4-yl]oxy}-3-(2-{[2-(2-hydroxyphenyl)pyrimidin-4-yl]methoxy}phenyl)propanoate] | 5.15e-06 |
| CCOC(=O)C(Cc1ccccc1OCc1ccnc(-c2ccccc2F)n1)Oc1ncnc2sc(-c3ccc(F)cc3)c(-c3ccc(OCCN(C)CC)c(Cl)c3C)c12 [Example 801, ethyl (2R)-2-{[(5Sa)-5-(3-chloro-4-{2-[ethyl(methyl)amino]ethoxy}-2-methylphenyl)-6-(4-fluorophenyl)thieno[2,3-d]pyrimidin-4-yl]oxy}-3-(2-{[2-(2-fluorophenyl)pyrimidin-4-yl]methoxy}phenyl)propanoate] | 4.37e-06 |
| COCCOC(=O)C(Cc1ccccc1OCc1ccnn1C(C)(C)C)Oc1ncnc2sc(-c3ccc(F)cc3)c(-c3ccc(OCCN(C)C)c(Cl)c3C)c12 [Example 802, 2-methoxyethyl (2R)-3-{2-[(1-tert-butyl-1H-pyrazol-5-yl)methoxy]phenyl}-2-{[(5Sa)-5-{3-chloro-4-[2-(dimethylamino)ethoxy]-2-methylphenyl}-6-(4-fluorophenyl)thieno[2,3-d]pyrimidin-4-yl]oxy}propanoate] | 2.88e-06 |
| CCN(C)CCOc1ccc(-c2c(-c3ccc(F)cc3)sc3ncnc(OC(Cc4ccccc4OCc4ccnc(-c5ccccc5F)n4)C(=O)OCCOC)c23)c(C)c1Cl [Example 803, 2-methoxyethyl (2R)-2-{[(5Sa)-5-(3-chloro-4-{2-[ethyl(methyl)amino]ethoxy}-2-methylphenyl)-6-(4-fluorophenyl)thieno[2,3-d]pyrimidin-4-yl]oxy}-3-(2-{[2-(2-fluorophenyl)pyrimidin-4-yl]methoxy}phenyl)propanoate] | 3.14e-06 |
| CCOC(=O)C(Cc1ccccc1OCc1ccnn1C(C)(C)C)Oc1ncnc2sc(-c3cccc(F)c3F)c(-c3ccc(OCCN(C)C)c(Cl)c3C)c12 [Example 804, ethyl (2R)-3-{2-[(1-tert-butyl-1H-pyrazol-5-yl)methoxy]phenyl}-2-{[(5Sa)-5-{3-chloro-4-[2-(dimethylamino)ethoxy]-2-methylphenyl}-6-(2,3-difluorophenyl)thieno[2,3-d]pyrimidin-4-yl]oxy}propanoate] | 4.68e-05 |

Further lines, results first:

| IC50 [M] | SMILES |
| --- | --- |
| 2.75e-06 | CCOC(=O)C(Cc1ccccc1OCc1ccnc(-c2ccccc2F)n1)Oc1ncnc2sc(-c3ccc(F)cc3)c(-c3ccc(OCCN4CCN(C)CC4)c(Cl)c3C)c12 [Example 797, ethyl (2R)-2-{[(5Sa)-5-{3-chloro-2-methyl-4-[2-(4-methylpiperazin-1-yl)ethoxy]phenyl}-6-(4-fluorophenyl)thieno[2,3-d]pyrimidin-4-yl]oxy}-3-(2-{[2-(2-fluorophenyl)pyrimidin-4-yl]methoxy}phenyl)propanoate] |
| 1.63e-06 | CCOC(=O)C(Cc1ccccc1OCc1ccnc(-c2ccccc2OCCOC)n1)Oc1ncnc2sc(-c3ccc(F)cc3)c(-c3ccc(OCCN(C)C)c(Cl)c3C)c12 [Example 806, ethyl (2R)-2-{[(5Sa)-5-{3-chloro-4-[2-(dimethylamino)ethoxy]-2-methylphenyl}-6-(4-fluorophenyl)thieno[2,3-d]pyrimidin-4-yl]oxy}-3-[2-({2-[2-(2-methoxyethoxy)phenyl]pyrimidin-4-yl}methoxy)phenyl]propanoate] |
| 1.39e-06 | COCCOC(=O)C(Cc1ccccc1OCc1ccnc(-c2ccccc2OCCOC)n1)Oc1ncnc2sc(-c3ccc(F)cc3)c(-c3ccc(OCCN(C)C)c(Cl)c3C)c12 [Example 800, 2-methoxyethyl (2R)-2-{[(5Sa)-5-{3-chloro-4-[2-(dimethylamino)ethoxy]-2-methylphenyl}-6-(4-fluorophenyl)thieno[2,3-d]pyrimidin-4-yl]oxy}-3-[2-({2-[2-(2-methoxyethoxy)phenyl]pyrimidin-4-yl}methoxy)phenyl]propanoate] |
| 1.12e-06 | Cc1c(-c2c(-c3ccc(F)cc3)sc3ncnc(OC(Cc4ccccc4OCc4ccnc(-c5ccccc5F)n4)C(=O)OCC(=O)N(C)C)c23)ccc(OCCN(C)C)c1Cl [Example 818, 2-(dimethylamino)-2-oxoethyl (2R)-2-{[(5Sa)-5-{3-chloro-4-[2-(dimethylamino)ethoxy]-2-methylphenyl}-6-(4-fluorophenyl)thieno[2,3-d]pyrimidin-4-yl]oxy}-3-(2-{[2-(2-fluorophenyl)pyrimidin-4-yl]methoxy}phenyl)propanoate] |
| 8.5e-07 | CCOC(=O)C(Cc1ccccc1OCc1ccnc(-c2ccccc2OC)n1)Oc1ncnc2sc(-c3ccc(F)cc3)c(-c3ccc(OCCN4CCNCC4)c(Cl)c3C)c12 [Example 795, ethyl (2R)-2-{[(5Sa)-5-{3-chloro-2-methyl-4-[2-(piperazin-1-yl)ethoxy]phenyl}-6-(4-fluorophenyl)thieno[2,3-d]pyrimidin-4-yl]oxy}-3-(2-{[2-(2-methoxyphenyl)pyrimidin-4-yl]methoxy}phenyl)propanoate] |
| 5.16e-07 | CCOC(=O)C(Cc1ccccc1OCc1ccnc(-c2ccccc2OCCOC)n1)Oc1ncnc2sc(-c3ccc(F)cc3)c(-c3ccc(OCCN4CCN(C)CC4)c(Cl)c3C)c12 [Example 796, ethyl (2R)-2-{[(5Sa)-5-{3-chloro-2-methyl-4-[2-(4-methylpiperazin-1-yl)ethoxy]phenyl}-6-(4-fluorophenyl)thieno[2,3-d]pyrimidin-4-yl]oxy}-3-[2-({2-[2-(2-methoxyethoxy)phenyl]pyrimidin-4-yl}methoxy)phenyl]propanoate] |
| 4.75e-07 | Cc1c(-c2c(-c3ccc(F)cc3)sc3ncnc(OC(Cc4ccccc4OCc4ccnn4C(C)(C)C)C(=O)OCC(=O)N(C)C)c23)ccc(OCCN(C)C)c1Cl [Example 817, 2-(dimethylamino)-2-oxoethyl (2R)-3-{2-[(1-tert-butyl-1H-pyrazol-5-yl)methoxy]phenyl}-2-{[(5Sa)-5-{3-chloro-4-[2-(dimethylamino)ethoxy]-2-methylphenyl}-6-(4-fluorophenyl)thieno[2,3-d]pyrimidin-4-yl]oxy}propanoate] |
| 1.72e-07 | Cc1c(-c2c(-c3ccc(F)cc3)sc3ncnc(OC(Cc4ccccc4OCc4ccnc(-c5ccccc5F)n4)C(=O)OCC(=O)N(C)C)c23)ccc(OCCN2CCN(C)CC2)c1Cl [Example 816, 2-(dimethylamino)-2-oxoethyl (2R)-2-{[(5Sa)-5-{3-chloro-2-methyl-4-[2-(4-methylpiperazin-1-yl)ethoxy]phenyl}-6-(4-fluorophenyl)thieno[2,3-d]pyrimidin-4-yl]oxy}-3-(2-{[2-(2-fluorophenyl)pyrimidin-4-yl]methoxy}phenyl)propanoate] |
| 1.57e-07 | COCCOc1ccccc1-c1nccc(COc2ccccc2CC(Oc2ncnc3sc(-c4ccc(F)cc4)c(-c4ccc(OCCN(C)C)c(Cl)c4C)c23)C(=O)OCC(=O)N(C)C)n1 [Example 819, 2-(dimethylamino)-2-oxoethyl (2R)-2-{[(5Sa)-5-{3-chloro-4-[2-(dimethylamino)ethoxy]-2-methylphenyl}-6-(4-fluorophenyl)thieno[2,3-d]pyrimidin-4-yl]oxy}-3-[2-({2-[2-(2-methoxyethoxy)phenyl]pyrimidin-4-yl}methoxy)phenyl]propanoate] |

Same assay, conditions: test compound at 10 uM; Method 1, or Method 2 where the value is underlined (underlining not visible)

| percentage fluorescence polarisation inhibition (Mcl-1 FP), partial inhibitors [% @ 10 uM] | SMILES |
| --- | --- |
| 59.6 | COCCOC(=O)[C@@H](Cc1ccccc1OCc1ccnc(-c2ccccc2F)n1)Oc1ncnc2sc(-c3ccc(F)cc3)c(-c3ccc(OCCN(C)C)c(Cl)c3C)c12 [Example 799, 2-methoxyethyl (2R)-2-{[(5Sa)-5-{3-chloro-4-[2-(dimethylamino)ethoxy]-2-methylphenyl}-6-(4-fluorophenyl)thieno[2,3-d]pyrimidin-4-yl]oxy}-3-(2-{[2-(2-fluorophenyl)pyrimidin-4-yl]methoxy}phenyl)propanoate] |
| 53.5 | COCCOC(=O)[C@@H](Cc1ccccc1OCc1ccnn1C(C)(C)C)Oc1ncnc2sc(-c3cccc(F)c3F)c(-c3ccc(OCCN(C)C)c(Cl)c3C)c12 [Example 805, 2-methoxyethyl (2R)-3-{2-[(1-tert-butyl-1H-pyrazol-5-yl)methoxy]phenyl}-2-{[(5Sa)-5-{3-chloro-4-[2-(dimethylamino)ethoxy]-2-methylphenyl}-6-(2,3-difluorophenyl)thieno[2,3-d]pyrimidin-4-yl]oxy}propanoate] |
| 52.45 | CCOC(=O)[C@@H](Cc1ccccc1OCc1ccnc(-c2ccccc2F)n1)Oc1ncnc2sc(-c3ccc(F)cc3)c(-c3ccc(OCCN(C)C)c(Cl)c3C)c12 [Example 807, ethyl (2R)-2-{[(5Sa)-5-{3-chloro-4-[2-(dimethylamino)ethoxy]-2-methylphenyl}-6-(4-fluorophenyl)thieno[2,3-d]pyrimidin-4-yl]oxy}-3-(2-{[2-(2-fluorophenyl)pyrimidin-4-yl]methoxy}phenyl)propanoate] |
| 19.95 | CCCCCCCCOC(=O)[C@@H](Cc1ccccc1OCc1ccnc(-c2ccccc2OC)n1)Oc1ncnc2sc(-c3ccc(F)cc3)c(-c3ccc(OCCN4CCN(C)CC4)c(Cl)c3C)c12 [Example 815, octyl (2R)-2-{[(5Sa)-5-{3-chloro-2-methyl-4-[2-(4-methylpiperazin-1-yl)ethoxy]phenyl}-6-(4-fluorophenyl)thieno[2,3-d]pyrimidin-4-yl]oxy}-3-(2-{[2-(2-methoxyphenyl)pyrimidin-4-yl]methoxy}phenyl)propanoate] |

— patent US9670227B2, “Thienopyrimidine derivatives, a process for their preparation and pharmaceutical compositions containing them” (LES LABORATOIRES SERVIER, priority 2013, dated 2017)
